In brackets after ≈: the same amount, converted by molar mass.
Tests used:
Format in all cases: cell-based
[1] = test system: Clostridioides difficile ATCC 700057; assay: MIC, agar dilution, reference strains of anaerobic bacteria; conditions: ATCC700057
[2] = test system: Clostridioides difficile ATCC 43255; assay: as above; conditions: ATCC43255
[3] = test system: Clostridioides difficile ATCC BAA-1803; assay: as above; conditions: ATCCBAA1803
[4] = test system: Clostridioides difficile ATCC BAA-1870; assay: as above; conditions: ATCCBAA1870
[5] = test system: Clostridium perfringens ATCC 13124; assay: microbe, parasite or virus in culture; conditions: ATCC13124
[6] = test system: Peptostreptococcus anaerobius ATCC 27337; assay: MIC, agar dilution, reference strains of anaerobic bacteria; conditions: ATCC27337
[7] = test system: Peptoniphilus asaccharolyticus ATCC 14963; assay: as above; conditions: ATCC14963
Parvimonas micra KUB3000 = assay: as above
[8] = test system: Finegoldia magna ATCC 29328; assay: as above; conditions: ATCC29328
[9] = test system: Eggerthella lenta ATCC 43055; assay: as above; conditions: ATCC43055
Olsenella uli KUB3012 = assay: as above
[10] = test system: Bulleidia extructa KUB3013; assay: as above
Atopobium rimae KUB3014 = assay: as above; conditions: Lancefieldella rimae
[11] = test system: Propionibacterium acnes ATCC 11827; assay: as above; conditions: Cutibacterium acnes, ATCC11827
[12] = test system: Actinomyces odontolyticus ATCC 17929; assay: as above; conditions: Schaalia odontolytica, ATCC17929
[13] = test system: Bacteroides fragilis ATCC 25285; assay: as above; conditions: ATCC25285
[14] = test system: Bacteroides fragilis KUB2982; assay: as above
[15] = test system: Bacteroides fragilis KUB2983; assay: as above
[16] = test system: Bacteroides thetaiotaomicron ATCC 29741; assay: as above; conditions: ATCC29741
[17] = test system: Bacteroides thetaiotaomicron KUB2984; assay: as above
[18] = test system: Bacteroides ovatus KUB3009; assay: as above
[19] = test system: Prevotella histicola KUB2989; assay: as above
[20] = test system: Prevotella intermedia KUB2991; assay: as above
[21] = test system: Prevotella melaninogenica KUB3005; assay: as above
[22] = test system: Prevotella buccae KUB2992; assay: as above; conditions: Segatella buccae
[23] = test system: Fusobacterium varium ATCC 27725; assay: as above; conditions: ATCC27725
[24] = test system: Fusobacterium nucleatum ATCC 25586; assay: as above; conditions: ATCC25586

For `Cc1ncc([N+](=O)[O-])n1CCO` [Metronidazole, metronidazole], the MIC [1] was 0.5 µg/mL (≈ 2.92 µM), the MIC [2] was 1 µg/mL (≈ 5.84 µM) and the MIC [3] was 2 µg/mL (≈ 11.7 µM). It also gave an MIC [4] of 1 µg/mL (≈ 5.84 µM), an MIC [5] of 2 µg/mL (≈ 11.7 µM) and an MIC [6] of 0.5 µg/mL (≈ 2.92 µM). For the same compound, the MIC [7] was 1 µg/mL (≈ 5.84 µM), the MIC (Parvimonas micra KUB3000) was 0.5 µg/mL (≈ 2.92 µM) and the MIC [8] was 2 µg/mL (≈ 11.7 µM). The MIC [9] was 1 µg/mL (≈ 5.84 µM), the MIC (Olsenella uli KUB3012) was 4 µg/mL (≈ 23.4 µM) and the MIC [10] was 2 µg/mL (≈ 11.7 µM). It also gave an MIC (Atopobium rimae KUB3014) of 1 µg/mL (≈ 5.84 µM), an MIC [11] of over 64 µg/mL and an MIC [12] of over 64 µg/mL. The MIC [13] was 1 µg/mL (≈ 5.84 µM), the MIC [14] was 2 µg/mL (≈ 11.7 µM) and the MIC [15] was 0.5 µg/mL (≈ 2.92 µM). For the same compound, the MIC [16] was 2 µg/mL (≈ 11.7 µM), the MIC [17] was 1 µg/mL (≈ 5.84 µM) and the MIC [18] was 1 µg/mL (≈ 5.84 µM). For the same compound, the MIC [19] was 2 µg/mL (≈ 11.7 µM), the MIC [20] was 1 µg/mL (≈ 5.84 µM) and the MIC [21] was 1 µg/mL (≈ 5.84 µM). For the same compound, the MIC [22] was 2 µg/mL (≈ 11.7 µM), the MIC [23] was 0.5 µg/mL (≈ 2.92 µM) and the MIC [24] was at most 0.125 µg/mL.

— article PMC11620503 (Antimicrobial Agents and Chemotherapy, 2024)
